Data set [1] can be described thus: Spectral property comparison (excitation and emission wavelength) of indicator acids. The data set is classed as physicochemical. From the text:
The red-shift excitation and emission wavelengths provide a great advantage for the use of current invention in the high throughput screening of new drug candidates since there are many fluorescent compounds of short wavelength in the screening compound libraries. Fluo-3 AM and Fluo-4 AM are currently used in the high throughput screening of new drug candidates, but their short wavelength overlap with the fluorescence of some fluorescent compounds in the screening compound libraries, causing severe interference.

Data set [2] has as its system CHO cells. Briefly: Cell-induced absorption spectral shift of indicator AM esters, absence vs presence of CHO cells. The data set is classed as cell-based. To be noted: for Cell-Induced Excitation Wavelength Shift (nm): absence vs presence of CHO cells. From the text:
FIG. 7. The cell-induced absorption spectral shift comparison of Fluo-3 AM and Compound 16. The absorption spectra are normalized at their maximum absorption peak. Solid lines represent the absorption spectra of Compound 16 in the absence of CHO cells (left) and in the presence of CHO cells (right) respectively. Dot lines represent the absorption spectra of Fluo-3 AM in the absence of CHO cells (left) and in the presence of CHO cells (right) respectively.
FIG. 8. The cell-induced absorption spectral shift comparison of Fluo-4 AM and Compound 85. The absorption spectra are normalized at their maximum absorption peak. Solid lines represent the absorption spectra of Compound 85 in the absence of CHO cells (left) and in the presence of CHO cells (right) respectively. Dot lines represent the absorption spectra of Fluo-4 AM in the absence of CHO cells (left) and in the presence of CHO cells (right) respectively.
Fluo-3 AM and Fluo-4 AM are predominantly used for monitoring intracellular calcium signal. However, Fluo-3 AM, Fluo-4 AM and their cell-hydrolyzed products (Fluo-3 and Fluo-4) can be simultaneously excited by the same excitation source (see FIGS. 7 and 8), causing high assay background. The present application is directed to a family of fluorescent dyes that are useful for preparing fluorescent metal ion indicators. The indicators include a carbofluorescein lactone fluorophore that is incorporated with an ionophore, and are useful for the detection, discrimination and quantification of metal cations.
In one aspect of the invention, the disclosed calcium indicators have the minimal assay background in their masked form since their non-hydrolyzed AM esters cannot be excited in the range of visible wavelengths. […] The fluorescence outside cells generates the detrimental assay background. It is evident that the calcium indicators of the invention (e.g., Compound 16) have unexpected spectral properties that enable more sensitive detection of calcium in cells compared to the existing fluorescein-based calcium indicators (such as Fluo-3 AM).
It is evident that the calcium indicators of the invention (e.g., Compound 85) have unexpected spectral properties that enable more sensitive detection of calcium in cells compared to the existing fluorescein-based calcium indicators (such as Fluo-4 AM).

Data set [3] is described as follows: Calcium response of indicator measured in fluorescence excitation/emission in PBS buffer. The data set is classed as binding. To be noted: 5 μM in PBS buffer, excited at 555 nm. How it is done: FIG. 5. Calcium responses of Compound 79 (5 μM) measured in fluorescence excitation in PBS buffer solution. The calcium concentrations are indicated in the graph in the unit of μM.
FIG. 6. Calcium responses of Compound 79 (5 μM) measured in fluorescence emission in PBS buffer solution. The calcium concentrations are indicated in the graph in the unit of μM.

In data set [4] the test system is CHO cells stably transfected with muscarinic receptor 1. Briefly: Calcium flux assay in cells loaded with indicator AM ester, ATP stimulation, microplate reader or imaging. The class given is cell-based. To be noted: compared with Fluo-4 AM. As for the experimental part: In yet another aspect of the invention, the fluorescent ion indicators are used in a method to measure calcium flux. Cells (e.g., CHO cells) stably transfected with muscarinic receptor 1 are plated—e.g., at 60,000 cells per 100 μl per well in F12 with 5% FBS and 1% glutamine in a 96-well black wall/clear bottom Costar plate—and incubated (e.g., in 5% CO2 at 37° C. overnight). The growth medium is removed and the cells are incubated with a fluorescent ion indicator (e.g., with 100 μl/well of 1-8 μM Fluo-4 AM or Compound 85 in Hanks and HEPES buffer for 1 hour at room temperature) with or without probenecid. […]
Calcium flux assays are preferred methods in drug discovery for screening G protein coupled receptors (GPCR). The fluorescent indicators of the invention provide a homogeneous fluorescence-based assay for detecting the intracellular calcium mobilization. […] When the sample cells are stimulated with screening compounds, the receptor triggers a release of intracellular calcium, which then greatly increases the fluorescence of the intracellular indicators. The combination of long wavelength fluorescence properties, high sensitivity, and often a >100 times increase in fluorescence upon binding with calcium makes the disclosed indicators well-suited for measurement of cellular calcium. […]
(In general: Calcium flux is commonly read through the fluorescence of an indicator in the cells.)

The structures appear in SMILES notation. “Also recorded” adds a separate entry of the source.

For `Cc1ccc(N(CC(=O)O)CC(=O)O)c(OCCOc2cc(C3=C4C=C(Cl)C(=O)C=C4C(C)(C)c4cc(O)c(Cl)cc43)c(C(=O)O)cc2N(CC(=O)O)CC(=O)O)c1` [Compound 11], in data set [1], the “Emission Wavelength (nm)” value is given as 584 nm and the “Excitation Wavelength (nm)” value turned out to be 558 nm.
Regarding `CC(=O)OCOC(=O)CN(CC(=O)OCOC(C)=O)c1ccc(C)cc1OCCOc1cc2c(cc1N(CC(=O)OCOC(C)=O)CC(=O)OCOC(C)=O)C(=O)OC21c2cc(Cl)c(OC(C)=O)cc2C(C)(C)c2cc(OC(C)=O)c(Cl)cc21` [Compound 16], in data set [2], the “Residual absorption of dye AM at the maximum excitation of dye acid” value (from here on “Residual absorption of dye AM”) worked out at 0% and the “Cell-Induced Excitation Wavelength Shift (nm)” value is on record as 278 nm. Also, the “absorption of masked AM form at excitation wavelength” value (shortened to “absorption of masked AM form”) in data set [2] (at 555 nm) is recorded as “essentially no absorption”.
Consider `Cc1ccc(N(CC(=O)O)CC(=O)O)c(OCCOc2cc(C3=C4C=C(F)C(=O)C=C4C(C)(C)c4cc(O)c(F)cc43)c(C(=O)O)cc2N(CC(=O)O)CC(=O)O)c1` [Compound 79], for which, in data set [1], the “Emission Wavelength (nm)” value is reported as 582 nm and the “Excitation Wavelength (nm)” value is 554 nm. For the same compound, the calcium binding entry in data set [3] was “binds calcium”.
On to `CC(=O)OCOC(=O)CN(CC(=O)OCOC(C)=O)c1ccc(C)cc1OCCOc1cc2c(cc1N(CC(=O)OCOC(C)=O)CC(=O)OCOC(C)=O)C(=O)OC21c2cc(F)c(OC(C)=O)cc2C(C)(C)c2cc(OC(C)=O)c(F)cc21` [Compound 85], for which, in data set [2], the “Residual absorption of dye AM” value was 0% and the “Cell-Induced Excitation Wavelength Shift (nm)” value was found to be 277 nm. In data set [2] (at 555 nm), the “absorption of masked AM form” value is reported as “essentially no absorption”. For the same compound, the “fluorescence intensity enhancement upon calcium stimulation” value in data set [4] (absence of probenecid) is “much greater than that of Fluo-4 AM; also recorded: better fluorescence intensity enhancement upon calcium stimulation than that of Fluo-4 AM”. Moreover, the loading into cells entry in data set [4] was “load into cells much better than Fluo-4 AM”.
Take `CC(=O)OCOC(=O)CN(CC(=O)OCOC(C)=O)c1ccc(C)cc1OCCOc1cc(-c2c3cc(Cl)c(=O)cc-3oc3cc(OCOC(C)=O)c(Cl)cc23)ccc1N(CC(=O)OCOC(C)=O)CC(=O)OCOC(C)=O` [Fluo-3 AM, reference compound]: in data set [2], the “Residual absorption of dye AM” value is given as 7.6% and the “Cell-Induced Excitation Wavelength Shift (nm)” value turned out to be 36 nm. Moreover, in data set [2] (at 488 nm), the “absorption of masked AM form” value was “substantial absorption”.
As to `Cc1ccc(N(CC(=O)O)CC(=O)O)c(OCCOc2cc(-c3c4cc(Cl)c(=O)cc-4oc4cc(O)c(Cl)cc34)ccc2N(CC(=O)O)CC(=O)O)c1` [Fluo-3, reference compound], in data set [1], the “Emission Wavelength (nm)” value is 526 nm and the “Excitation Wavelength (nm)” value was 504 nm.
For the compound `CC(=O)OCOC(=O)CN(CC(=O)OCOC(C)=O)c1ccc(C)cc1OCCOc1cc(-c2c3cc(F)c(=O)cc-3oc3cc(OCOC(C)=O)c(F)cc23)ccc1N(CC(=O)OCOC(C)=O)CC(=O)OCOC(C)=O` [Fluo-4 AM, reference compound], in data set [2], the “Residual absorption of dye AM” value turned out to be 7.8% and the “Cell-Induced Excitation Wavelength Shift (nm)” value was determined as 38 nm. Further, the “absorption of masked AM form” value in data set [2] (at 488 nm) is “substantial absorption”.
On to `Cc1ccc(N(CC(=O)O)CC(=O)O)c(OCCOc2cc(-c3c4cc(F)c(=O)cc-4oc4cc(O)c(F)cc34)ccc2N(CC(=O)O)CC(=O)O)c1` [Fluo-4, reference compound], for which, in data set [1], the “Emission Wavelength (nm)” value is listed as 515 nm and the “Excitation Wavelength (nm)” value came to 493 nm.
